Consider 13 molecules from patent US20240343740A1, “MACROCYCLIC GLUCAGON-LIKE PEPTIDE 1 RECEPTOR AGONISTS” (Eli Lilly and Company, priority 2021, published 2024).

Assay [1] has as its target T1, human GLP-1R (Homo sapiens, UniProt P43220). The experiment in a line: Human GLP-1 Receptor HEK293 cell cAMP assay, 104 fmol/mg GLP-1R expression density. Format: cell-based. Also noted: expressed in transfected cells; host or cells: HEK293 clonal cell line. As to conditions: HEK293 cell line with 104 fmol/mg expression density of GLP-1R; for EC50: geometric mean, read-out: EC50 nM (SEM, n), intracellular cAMP response, relative EC50; for Emax: percent of maximal response to GLP-1(7-36)NH2, arithmetic mean, read-out: Emax % (SEM, n), intracellular cAMP response. The method in brief: (§1)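 HEK293 clonal lines expressing human GLP-1R, 20-point compound curves, 30 min at 37° C in DMEM with 0.1% casein, 250 μM IBMX, 0.5% DMSO. cAMP by HTRF, converted via standard curve to % of maximal human GLP-1(7-36)NH2 response; relative EC50 and Emax from four-parameter logistic fit.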
For orientation: Cyclic AMP is a second messenger, typically raised through Gs and lowered through Gi signalling.

Assay [2] addresses T1, human GLP-1R. Nature of the assay: Human GLP-1 Receptor HEK293 cell cAMP assay, 581 fmol/mg GLP-1R expression density. Format: cell-based. As to conditions: HEK293 cell line with 581 fmol/mg expression density of GLP-1R; for EC50: geometric mean, read-out: EC50 nM (SEM, n), intracellular cAMP response, relative EC50; for Emax: percent of maximal response to GLP-1(7-36)NH2, arithmetic mean, read-out: Emax % (SEM, n), intracellular cAMP response. Also noted: expressed in transfected cells; host or cells: HEK293 clonal cell line. The essentials:
as §1

The EC50 is the concentration giving half of the maximal effect. As usually defined, the Emax is the greatest response seen or fitted, relative to the assay's reference.

SMILES strings stand for the structures.

T1 sequence (P43220 24-463): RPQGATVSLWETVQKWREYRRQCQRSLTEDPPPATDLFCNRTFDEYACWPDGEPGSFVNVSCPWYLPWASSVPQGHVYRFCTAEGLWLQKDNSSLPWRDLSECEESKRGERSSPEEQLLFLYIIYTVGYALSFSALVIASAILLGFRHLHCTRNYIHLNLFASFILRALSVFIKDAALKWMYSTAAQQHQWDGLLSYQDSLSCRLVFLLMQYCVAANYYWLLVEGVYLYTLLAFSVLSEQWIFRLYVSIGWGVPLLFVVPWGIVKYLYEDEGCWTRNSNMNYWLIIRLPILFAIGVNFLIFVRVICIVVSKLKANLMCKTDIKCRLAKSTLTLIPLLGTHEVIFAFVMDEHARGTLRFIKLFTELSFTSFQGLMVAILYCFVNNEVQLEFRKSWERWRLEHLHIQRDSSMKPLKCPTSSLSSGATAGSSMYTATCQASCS

Regarding `N#Cc1ccc2c(c1)CCCOc1cc(ccc1Cc1nc3c(OCCNCC(F)(F)F)cc(C(=O)O)cc3n1C[C@@H]1CCO1)-c1cccc(n1)OC2` [Example 54, (S)-2-((5^4-Cyano-3,9-dioxa-2(2,6)-pyridina-1(1,3),5(1,2)-dibenzenacyclononaphane-1^4-yl)methyl)-1-(oxetan-2-ylmethyl)-4-(2-((2,2,2-trifluoroethyl)amino)ethoxy)-1H-benzo[d]imidazole-6-carboxylic acid], the figures for the EC50 in assay [1] and in assay [2] were 654 nM and 440 nM, respectively. Further, the Emax in assay [1] was 18.3%; in assay [2], 49.5%.
Consider `O=C(O)c1cc(OCCO)c2nc(Cc3ccc4cc3COCCc3cc(Cl)ccc3COc3cccc-4n3)n(C[C@@H]3CCO3)c2c1` [Example 55, (S)-4-[2-Hydroxyethoxy]-2-((5^4-chloro-3,8-dioxa-2(2,6)-pyridina-1(1,3),5(1,2)-dibenzenacyclononaphane-1^4-yl)methyl)-1-(oxetan-2-ylmethyl)-1H-benzo[d]imidazole-6-carboxylic acid], for which the values for the EC50 in assay [1] and in assay [2] were 22.8 nM and 8.94 nM, respectively. The Emax in assay [1] turned out to be 84.8%; in assay [2], 113%.
On the same counts, the results for `CN(C)CCOc1cc(C(=O)O)cc2c1nc(Cc1ccc3cc1COCCc1cc(Cl)ccc1COc1cccc-3n1)n2C[C@@H]1CCO1` [Example 56, (S)-2-((5^4-Chloro-3,8-dioxa-2(2,6)-pyridina-1(1,3),5(1,2)-dibenzenacyclononaphane-1^4-yl)methyl)-4-(2-(dimethylamino)ethoxy)-1-(oxetan-2-ylmethyl)-1H-benzo[d]imidazole-6-carboxylic acid] are 131 nM, 55.8 nM, 41.7% and 85%.
In the case of `CNCCOc1cc(C(=O)O)cc2c1nc(Cc1ccc3cc1COCCc1cc(Cl)ccc1COc1cccc-3n1)n2C[C@@H]1CCO1` [Example 57, (S)-2-((5^4-Chloro-3,8-dioxa-2(2,6)-pyridina-1(1,3),5(1,2)-dibenzenacyclononaphane-1^4-yl)methyl)-4-(2-(methylamino)ethoxy)-1-(oxetan-2-ylmethyl)-1H-benzo[d]imidazole-6-carboxylic acid], the EC50 in assay [1] turned out to be 1030 nM; in assay [2], 440 nM. Besides, the values for the Emax in assay [1] and in assay [2] were 42.1% and 76.2%, respectively.
Consider `COCCOc1cc(C(=O)O)cc2c1nc(Cc1cc(F)c3cc1COCCc1cc(ccc1C#N)COc1cccc-3n1)n2C[C@@H]1CCO1` [Example 58, (S)-2-((5^4-Cyano-1^6-fluoro-3,8-dioxa-2(2,6)-pyridina-1,5(1,3)-dibenzenacyclononaphane-1^4-yl)methyl)-4-(2-methoxyethoxy)-1-(oxetan-2-ylmethyl)-1H-benzo[d]imidazole-6-carboxylic acid], for which, in assay [1], the EC50 was 1.62 nM and the Emax stood at 90%. In assay [2], the EC50 was 0.633 nM and the Emax was found to be 109%.
In the same order, the values of `CN1CCC(Oc2cc(C(=O)O)cc3c2nc(Cc2ccc4cc2OCCCc2cc(C#N)ccc2COc2cccc-4n2)n3C[C@@H]2CCO2)C1` (stereo partly drawn) [Example 59, 2-((5^4-Cyano-3,9-dioxa-2(2,6)-pyridina-1(1,3),5(1,2)-dibenzenacyclononaphane-1^4-yl)methyl)-4-((1-methylpyrrolidin-3-yl)oxy)-1-(((S)-oxetan-2-yl)methyl)-1H-benzo[d]imidazole-6-carboxylic acid] are 515 nM, 48.4%, 262 nM and 90.9%.
Take `N#Cc1ccc2c(c1)CCOCc1cc(ccc1Cc1nc3c(F)cc(C(=O)O)cc3n1C[C@@H]1CCO1)-c1cccc(n1)OC2` [Example 61, (S)-2-((5^4-cyano-3,8-dioxa-2(2,6)-pyridina-1(1,3),5(1,2)-dibenzenacyclononaphane-1^4-yl)methyl)-4-fluoro-1-(oxetan-2-ylmethyl)-1H-benzo[d]imidazole-6-carboxylic acid]: in assay [1], the EC50 amounted to 79.1 nM and the Emax was 93.2%. Further, in assay [2], the EC50 is 18.1 nM and the Emax came out at 110%.
Turning to `CN(C)C(=O)COc1cc(C(=O)O)cc2c1nc(Cc1ccc3cc1OCCCc1cc(C#N)ccc1COc1cccc-3n1)n2C[C@@H]1CCO1` [Example 62, (S)-2-((5^4-Cyano-3,9-dioxa-2(2,6)-pyridina-1(1,3),5(1,2)-dibenzenacyclononaphane-1^4-yl)methyl)-4-(2-(dimethylamino)-2-oxoethoxy)-1-(oxetan-2-ylmethyl)-1H-benzo[d]imidazole-6-carboxylic acid], in assay [1], the EC50 was found to be 737 nM and the Emax stood at 32.9%. In assay [2], the EC50 was found to be 285 nM and the Emax amounted to 62.2%.
In the same order, the values of `CCn1cncc1Cn1c(Cc2ccc3cc2OCCCc2cc(C#N)ccc2COc2cccc-3n2)nc2c(OC)cc(C(=O)O)cc21` [Example 63, 2-((5^4-Cyano-3,9-dioxa-2(2,6)-pyridina-1(1,3),5(1,2)-dibenzenacyclononaphane-1^4-yl)methyl)-1-((1-ethyl-1H-imidazol-5-yl)methyl)-4-methoxy-1H-benzo[d]imidazole-6-carboxylic acid] are 112 nM, 81.1%, 29.9 nM and 101%.
Take `COCCOc1cc(C(=O)O)cc2c1nc(Cc1ccc3cc1COCCc1cc(C#N)ccc1COc1cccc-3n1)n2C[C@@H]1CCO1` [Example 64, (S)-2-((5^4-Cyano-3,8-dioxa-2(2,6)-pyridina-1(1,3),5(1,2)-dibenzenacyclononaphane-1^4-yl)methyl)-4-(2-methoxyethoxy)-1-(oxetan-2-ylmethyl)-1H-benzo[d]imidazole-6-carboxylic acid]: in assay [1], the EC50 amounted to 5.53 nM and the Emax worked out at 87.3%. In assay [2], the EC50 stood at 2.13 nM and the Emax was 110%.
Take `COCCOc1cc(C(=O)O)cc2c1nc(Cc1ccc3cc1COCCc1cc(ccc1C#N)COc1cccc-3n1)n2C[C@@H]1CCO1` [Example 65, (S)-2-((5^4-Cyano-3,8-dioxa-2(2,6)-pyridina-1,5(1,3)-dibenzenacyclononaphane-1^4-yl)methyl)-4-(2-methoxyethoxy)-1-(oxetan-2-ylmethyl)-1H-benzo[d]imidazole-6-carboxylic acid]: the EC50 in assay [1] stood at 4.62 nM; in assay [2], 1.86 nM. In addition, the Emax in assay [1] stood at 98.2%; in assay [2], 110%.
In the same order, the values of `O=C(O)c1ccc2nc(Cc3ccc4cc3OCCCc3cc(-n5cnc(F)c5)ccc3COc3cccc-4n3)n(C[C@@H]3CCO3)c2c1` [Example 66, (S)-2-((5^4-(4-Fluoro-1H-imidazol-1-yl)-3,9-dioxa-2(2,6)-pyridina-1(1,3),5(1,2)-dibenzenacyclononaphane-1^4-yl)methyl)-1-(oxetan-2-ylmethyl)-1H-benzo[d]imidazole-6-carboxylic acid] are 54.5 nM, 13.4 nM, 82.5% and 118%.
Turning to `COCCOc1cc(C(=O)O)cc2c1nc(Cc1cc(F)c3cc1COCc1cc(Cl)ccc1COc1cccc-3n1)n2C[C@@H]1CCO1` [Example 67, (S)-2-((5^4-Chloro-1^6-fluoro-3,7-dioxa-2(2,6)-pyridina-1(1,3),5(1,2)-dibenzenacyclooctaphane-1^4-yl)methyl)-4-(2-methoxyethoxy)-1-(oxetan-2-ylmethyl)-1H-benzo[d]imidazole-6-carboxylic acid], in assay [1], the EC50 came to 6.88 nM and the Emax was determined as 91.6%. Also, in assay [2], the EC50 amounted to 2.13 nM and the Emax is 117%.
